“Also recorded” adds a separate entry of the source.

This is an account of results in patent US20030008807A1, “Novel signaling pathway for the production of inflammatory pain and neuropathy” (The Regents of the University of California, priority 2001, published 2003).

Data set [1] has as its system mechanical nociceptive threshold. Put plainly: Epinephrine-induced mechanical hyperalgesia, Randall-Selitto paw-withdrawal test (Example 1). Particulars: intradermal, inhibitor 1 μg plus epinephrine 100 ng, male rats.
Text: The nociceptive flexion reflex (Randall-Selitto paw-withdrawal test) was quantified with a Basile Analge-symeter (Stoelting, Chicago, Ill.), which applies a linearly increasing mechanical force to the dorsum of the rat's hindpaw. The mechanical nociceptive threshold was defined as the force in grams at which the rat withdrew its paw. […] They were allowed to crawl into individual cylindrical Perspex blocks and were lightly restrained there by closing both ends of the cylinder. […] The rats were allowed to acclimatize to the restrainer for 5-10 min, after which the hindpaws were exposed to the test stimulus. Three readings were taken at 5 min intervals, and their mean was considered the baseline threshold. After each drug administration, mechanical paw-withdrawal thresholds were determined again as the mean of three readings taken 20, 25, and 30 min after injection.
Inhibitors were diluted with distilled water before intra-dermal injections into the paw using a 10 μl microsyringe (Hamilton, Reno, Nev.). Injections of peptides (1 μg/2.5 μl) were always preceded by injection of distilled water (2.5 μl) to produce hypo-osmotic shock. […] Paw-withdrawal thresholds were measured again 10, 15, and 20 min after injecting the test agent. The mean of the paw-withdrawal thresholds obtained at these three times was then taken as the mechanical nociceptive threshold at the dose of the test agent used. The effect of each dose a test agent was calculated as the percentage change from baseline.
A further data set concerns ERK1/2. Put plainly: Epinephrine-stimulated ERK1/2 phosphorylation in cultured rat DRG neurons (Western analysis). It is filed as cell-based. Conditions: for effect on epinephrine-induced ERK phosphorylation: 1 μM epinephrine 5 min, ICI 118,551 100 nM, U0126 10 μM, H89 1 μM, calphostin C 1 μM.
Data set [2] relates to mechanical nociceptive threshold. Put plainly: Prostaglandin E2-induced hyperalgesia in male and female rats (Example 2). It is filed as in vivo, rat. From the text:
The nociceptive flexion reflex was quantified using the Randall-Selitto paw pressure device (Analgesymeter, Stoetling, Chicago, Ill., USA), which applies a linearly increasing mechanical force to the dorsum of the rat's hind paw. The mechanical nociceptive threshold was defined as the force in grams at which the rat withdrew its paw. The protocols for this procedure have been previously described (Taiwo et al., (1989) The contribution of training to sensitivity in the nociceptive paw-withdrawal test. Brain Res., 487:148-151). Rats were familiarized in the testing procedure, at 5-min intervals for a period of 1 h per day for 3 days in the week preceding the experiment, to decrease variance in nociceptive thresholds (Taiwo et al., (1989), supra). Baseline paw-withdrawal threshold was defined as the mean of six readings before test agents were injected. Each paw was treated as an independent measure (Taiwo et al., (1989), supra) and each experiment was performed on a separate group of rats. Each group of rats was treated with only one agonist and/or antagonist injected peripherally by the intradermal route. It has been shown in previous studies that these agents, which are injected using the protocol described, exert a peripheral rather than central action (Khasar et al., (1995), supra; and, Khasar et al., (1999b), supra). The dose-response relationship for the effect of epinephrine was determined over a dose range of 1 ng-1 μg. All behavioural testing was done between 10.00 and 16.00 h. The blocking agents, with and without epinephrine (Khasar et al., (1999b), supra) or prostaglandin E2 (PGE2) (Aley et al., (1998), supra; Aley & Levine, (1999), supra; and, Aley et al., (2000) Chronic hypersensitivity for inflammatory nociceptor sensitization mediated by the epsilon isozyme of protein kinase C. J. Neurosci., 20:4680-4685), were injected as described previously (Khasar et al., (1995), supra; and, Khasar et al., (1999b), supra). […]

The test system of data set [3] is Taxol-induced hyperalgesia. Put plainly: Taxol-induced painful peripheral neuropathy, Randall-Selitto paw-withdrawal test. It is filed as in vivo, rat. Conditions: male and female rats; normal approximately 110 grams. From the text:
(§1) The role of Ras-MEK-ERK 1/2 cascade in painful peripheral neuropathy has been evaluated in three rodent models of common clinical conditions in which patients experience painful peripheral neuropathy. The three models are as follows: 1) Taxol® (a major cancer chemotherapy agent)-induced painful peripheral neuropathy (Dina, O. A., et al., (2001) Role of protein kinase C-epsilon and protein kinase A in a model of paclitaxel-induced painful peripheral neuropathy in the rat. Neuroscience 108:507-515); 2) vincristine (another cancer chemotherapy agent)-induced painful peripheral neuropathy (Aley, K. O., et al., (1996) Vincristine hyperalgesia in the rat: a possible modelfor painful vincristine neuropathy in humans. Neuroscience 73:259-265; Tanner, K. D., et al., (1998) Nociceptor hyper-responsiveness during vincristine-induced painful peripheral neuropathy in the rat. J. Neuroscience 18:6480-6491; Tanner, K. D., et al., (1998) Microtubule disorientation and axonal swelling in unmyelinated sensory axons during vincristine-induced painful neuropathy in rat. J. Comp. Neurol., 395:481-492; and, Tanner, K. D., et al., (2002) Altered temporal patterning of afferent activity in a rat model of vincristine-induced peripheral neuropathy (Submitted -Neuroscience).); and, 3) alcohol-induced painful peripheral neuropathy (Dina, O. A., et al., (2000) Key role for the epsilon isoform of protein kinase C in painful alcoholic neuropathy in the rat. J. Neurosci. 20:8614-8619). In all three models, inhibition of MEK by a MEK inhibitor, PD98509, produced either a moderate (Taxol and vincristine) or profound (alcohol) reversal of the painful peripheral neuropathy. In the third model, alcohol-induced painful peripheral neuropathy, a second inhibitor of the Ras-MEK-ERK 1/2 cascade, which was MEK inhibitor U0126, was also employed.
The pain threshold in normal male and female rats was approximately 110 grams, using the Randall-Selitto paw-withdrawal test (plotted as absolute change in nociceptive threshold). Following administration of Taxol, the threshold fell to approximately 70 grams.

In data set [4] the test system is alcohol-induced hyperalgesia. Put plainly: Alcohol-induced painful peripheral neuropathy, Randall-Selitto paw-withdrawal test. It is filed as in vivo, rat.
Text: as §1
The pain threshold in normal rats was approximately 110 grams, using the Randall-Selitto paw-withdrawal threshold test (plotted as percentage change in nociceptive threshold). Following chronic consumption of a diet in which alcohol replaced calories, but not other nutrients, in the normal diet, the threshold fell to approximately 70 grams. […] See FIG. 13A, which illustrates results from female rats and FIG. 13B, which illustrates results from male rats.

For data set [5], the system named is mechanical nociceptive threshold. Put plainly: Epinephrine-induced hyperalgesia in gonad-intact and gonadectomized male and female rats (Example 2). Particulars: inhibitor 1 μg, epinephrine 100 ng intradermal.
Method: The nociceptive flexion reflex was quantified using the Randall-Selitto paw pressure device (Analgesymeter, Stoetling, Chicago, Ill., USA), which applies a linearly increasing mechanical force to the dorsum of the rat's hind paw. The mechanical nociceptive threshold was defined as the force in grams at which the rat withdrew its paw. […] Baseline paw-withdrawal threshold was defined as the mean of six readings before test agents were injected. […] Each group of rats was treated with only one agonist and/or antagonist injected peripherally by the intradermal route. […] All behavioural testing was done between 10.00 and 16.00 h. […] The protein kinase inhibitor was separated from the distilled water by drawing up a small air bubble (<1 μL) into the syringe after drawing up the protein kinase inhibitor but before drawing up the distilled water.
A stock solution of PGE2 (4 mg/mL) was made by dissolving it in 10% ethanol in normal saline; further dilution to 100 ng was made by addition of saline. Final concentration of ethanol was <10%. […] Stock solutions (1 μg/μL) of inhibitors were stored at −20° C. […] Inhibitors were injected at a concentration of 1 μg/2.5 μL.
Data set [6] has as its system vincristine-induced hyperalgesia. Put plainly: Vincristine-induced painful peripheral neuropathy, Randall-Selitto paw-withdrawal test. The class given is in vivo, rat. Particulars: male and female rats; normal approximately 110 grams.
Text: as §1
The pain threshold in normal male and female rats was approximately 110 grams, using the Randall-Selitto paw-withdrawal test (plotted as absolute change in nociceptive threshold). Following administration of vincristine, the threshold fell to approximately 65 grams.

Data set [7] has as its system mechanical nociceptive threshold. Particulars: rat, in vivo; cited from earlier work.

Method for ERK1/2: Trypsin was inactivated by adding 100 μg/ml soybean trypsin inhibitor and 2.5 mg/ml MgSO4. The cells were centrifuged at 300×g for 5 min and resuspended culture media containing minimal essential medium (MEM) supplemented with 10% heat-inactivated fetal calf serum, 1×MEM vitamins, and 1000 U/ml each of penicillin and streptomycin. The culture was enriched for neurons by preplating on 100 mm culture dishes pretreated with 0.1 mg/ml poly-DL-ornithine in 15 mM sodium borate buffer. After culture for 15-20 hr, the loosely attached neuronal cells were collected and plated for 3 hr on six-well plates coated with 0.1 mg/ml poly-DL-ornithine and 1 mg/ml laminin.
After drug treatment, cells from neuron-enriched DRG cultures were collected and centrifuged at 300×g for 5 min at 4° C. […] Blots were incubated with anti-phospho-p42/44 MAP kinase antibody (diluted 1:500 in blocking buffer) overnight at 4° C. Blots were rinsed three times in PBS-T and incubated in blocking buffer containing HRP-conjugated goat anti-rabbit IgG (diluted 1:1000; Boehringer Mannheim, Indianapolis, Ind.) for 1 hr at 27° C. Immunoreactive bands were visualized by enhanced chemiluminescence (Amersham Pharmacia Biotech, Piscataway, N.J.). The membranes were then stripped of antibodies by incubation in 200 mM NaOH for 20 min at 27° C. […] After three washes in PBS-T, blots were incubated with HRP-conjugated goat anti-rabbit IgG (diluted 1:1000; Boehringer Mannheim) for 1 hr at 27° C., and immunoreactive bands were visualized by enhanced chemiluminescence and autoradiography. […] Data were normalized by dividing values obtained for phospho-ERK1 and phospho-ERK2 immunoreactivity by the value obtained for total ERK1 immunoreactivity for each sample.

Turning to `O=S(=O)(NCCNCC=Cc1ccc(Br)cc1)c1cccc2cnccc12` [H89, N-[2-(p-bromocinnamylamino)ethyl]-5-isoquinolinesulfonamide], the “effect on epinephrine-induced mechanical hyperalgesia” value in data set [1] is listed as “did not block”. The “effect on epinephrine-induced ERK phosphorylation” value in the data set with ERK1/2 was “did not reduce; also recorded: did not block”.
For pertussis toxin, the “effect on epinephrine-induced mechanical hyperalgesia” value in data set [1] is reported as “reduced”. Moreover, the “effect on epinephrine-induced phosphorylation of ERK1/2” value in the data set on ERK1/2 (pertussis toxin or 1 μM FTase I for 16 hr, then 1 μM epinephrine) was “prevented; also recorded: inhibit”.
Turning to `CCCCC[C@H](O)/C=C/[C@H]1[C@H](O)CC(=O)[C@@H]1C/C=C\CCCC(=O)O` [prostaglandin E2], the “magnitude of hyperalgesia in intact female rats vs males” value in data set [2] (PGE2 100 ng) is “greater”.
On to `CC(=O)O[C@H]1C(=O)[C@@]2(C)[C@H]([C@H](OC(=O)c3ccccc3)[C@]3(O)C[C@H](OC(=O)[C@H](O)[C@@H](NC(=O)c4ccccc4)c4ccccc4)C(C)=C1C3(C)C)[C@]1(OC(C)=O)CO[C@@H]1C[C@@H]2O` [Taxol], for which the “pain threshold following administration of Taxol” value in data set [3] is listed as “approximately 70 grams”.
With `CCO` [alcohol], the “threshold following chronic consumption of alcohol diet” value in data set [4] (female rats (FIG. 13A)) and in data set [4] (male rats (FIG. 13B)) was “approximately 70 grams” throughout. For the same molecule, the “pain threshold following chronic consumption of alcohol diet” value in data set [4] (normal approximately 110 grams) was “approximately 70 grams”.
On to `CNC(=N)NCCC[C@H](N)C(=O)O` [L-NMA, NG-methyl-L-arginine], for which the “effect on prostaglandin E2-induced hyperalgesia” value in data set [2] (both sexes, gonad-intact, inhibitor 1 μg, PGE2 100 ng intradermal) is reported as “significantly blocked; also recorded: inhibited to a similar degree”. Further, the “effect on epinephrine-induced hyperalgesia” value in data set [5] (gonadectomized female rats) is listed as “significantly antagonized”; in data set [5] (gonadectomized male rats), “significantly antagonized”; in data set [5] (intact female rats), “did not have a significant effect”; in data set [5] (intact male rats), “significantly antagonized”.
For `CC[C@]1(O)C[C@H]2CN(CCc3c([nH]c4ccccc34)[C@@](C(=O)OC)(c3cc4c(cc3OC)N(C=O)[C@H]3[C@@](O)(C(=O)OC)[C@H](OC(C)=O)[C@]5(CC)C=CCN6CC[C@]43[C@@H]65)C2)C1` [vincristine], the “pain threshold following administration of vincristine” value in data set [6] is “approximately 65 grams”.
Turning to `Cc1ccc(OCC(O)C(C)NC(C)C)c2c1CCC2` (stereo not drawn) [ICI 118,551], in the data set on ERK1/2, the “effect on epinephrine-induced ERK phosphorylation” value is on record as “inhibited”. The “effect on basal ERK phosphorylation” value with ERK1/2 (unstimulated cultures) is “did not inhibit”.
Regarding `C=C(C)[C@@H]1CC=C(C(=O)O)CC1` [perillic acid], in data set [1], the “effect on epinephrine-induced mechanical hyperalgesia” value is “reduced”.
In the case of `CC(C)NCC(O)COc1cccc2ccccc12` (stereo not drawn) [propranolol], the “effect on epinephrine-induced hyperalgesia” value in data set [5] (intact female rats) and in data set [5] (intact male rats) was “inhibited” in each case. The “effect on epinephrine hyperalgesia in the rat (previously demonstrated)” value in data set [7] was “significantly attenuated”.
Consider `Cc1ccc(N(CC2=NCCN2)c2cccc(O)c2)cc1` [phentolamine], for which, in data set [7], the “effect on epinephrine hyperalgesia in the rat (previously demonstrated)” value is given as “not”.
calphostin C: the “effect on epinephrine-induced ERK phosphorylation” value in the data set on ERK1/2 is on record as “did not reduce”.

B1: NGF: mouse 2.5 S nerve growth factor, positive control for ERK1/2 phosphorylation (protein, UniProt P01139 122-241, looked up)
Beta-nerve growth factor: SSTHPVFHMGEFSVCDSVSVWVGDKTTATDIKGKEVTVLAEVNINNSVFRQYFFETKCRASNPVESGCRGIDSKHWNSYCTTTHTFVKALTTDEKQAAWRFIRIDTACVCVLSRKATRRG
modifications: Beta-nerve growth factor
notes: mouse 2.5 S nerve growth factor, positive control for ERK1/2 phosphorylation
Consider B1, for which the “ERK1/2 phosphorylation (representative Western blot)” value in the data set on ERK1/2 (epinephrine for indicated times, NGF 50 ng/ml 5 min) is “stimulation”.
